#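 These data come from cells grown in 96-well plates and exposed to compound for 48 hours at five concentrations. GI50 marks 50% less growth. TGI is the concentration that stops growth completely.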
# Columns and labels:
# Assay in all cases: growth of human tumour cells (NCI), 48 h
# COLO 205 colon = tested on: COLO 205 colon
# EKVX NSCLC = tested on: EKVX NSCLC
# HCC-2998 colon = tested on: HCC-2998 colon
# HOP-92 NSCLC = tested on: HOP-92 NSCLC
# MALME-3M melanoma = tested on: MALME-3M melanoma
# RPMI-8226 leukemia = tested on: RPMI-8226 leukemia
# SK-MEL-2 melanoma = tested on: SK-MEL-2 melanoma
# HCT-116 colon = tested on: HCT-116 colon
# MCF7 breast = tested on: MCF7 breast
# SR leukemia = tested on: SR leukemia
Compound,TGI (COLO 205 colon) [µM],TGI (EKVX NSCLC) [µM],TGI (HCC-2998 colon) [µM],TGI (HOP-92 NSCLC) [µM],TGI (MALME-3M melanoma) [µM],TGI (RPMI-8226 leukemia) [µM],TGI (SK-MEL-2 melanoma) [µM],GI50 (COLO 205 colon) [µM],GI50 (EKVX NSCLC) [µM],GI50 (HCC-2998 colon) [µM],GI50 (HCT-116 colon) [µM],TGI (HCT-116 colon) [µM],GI50 (HOP-92 NSCLC) [µM],GI50 (MALME-3M melanoma) [µM],GI50 (MCF7 breast) [µM],TGI (MCF7 breast) [µM],GI50 (RPMI-8226 leukemia) [µM],GI50 (SK-MEL-2 melanoma) [µM],TGI (SR leukemia) [µM],GI50 (SR leukemia) [µM]
COC(=O)c1cc(O)ccc1O,> 100,> 100,> 100,> 100,> 100,> 100,> 100,–,–,–,–,–,–,–,–,–,–,–,–,–
COc1ccc(C2=C(c3ccccc3)C(=O)N3CCCC3C2)cc1 (stereo unspecified),> 100,> 100,> 55.5,> 100,> 100,> 100,> 100,0.241,> 82.9,2.27,0.0817,> 100,> 100,> 100,2.98,> 100,0.318,23.8,–,–
CC[O-].CC[O-].O=C1C=C([O-])C(=O)c2ccccc21.O=C1C=C([O-])C(=O)c2ccccc21.[Ti+4],> 59.8,> 100,> 100,> 100,> 100,> 100,> 100,24,> 100,46.1,43.2,> 100,> 100,9.89,–,–,8.08,9.89,–,–
CO/N=C(/C)COc1ccc2c(c1)oc(=O)c1cc(OC)ccc12,> 100,> 100,> 100,> 100,> 100,> 100,> 100,> 100,> 100,> 100,> 100,> 100,> 100,> 100,> 100,> 100,> 100,> 100,–,–
CC(C)n1cc(-c2ccc3c(c2)N(C)CC3)c2c(NS(=O)(=O)c3ccn(C)n3)ccnc21,> 100,> 100,> 100,> 100,> 100,> 100,> 100,> 100,28.2,> 100,48,> 100,24.6,> 100,31.5,> 100,54.2,56.6,–,–
C[n+]1cccc(NC(=O)c2ccc3ccc4ccc(C(=O)Nc5ccc[n+](C)c5)nc4c3n2)c1,> 100,> 100,> 100,> 65.1,> 100,> 100,> 100,4.35,5.08,3.04,3.18,> 100,7.15,> 89.1,2.35,> 100,2.99,6.71,–,–
CC(=O)OCc1nnn2c1C(OC(C)=O)CC2 (stereo unspecified),> 100,> 100,> 100,> 100,> 100,> 100,> 100,–,–,–,–,> 100,–,–,–,–,–,–,> 100,–
Clc1nc(Cl)c2ncn(-c3ccccc3)c2n1,13.5,19.2,–,5.51,7.12,–,27.1,3.4,4.49,–,2,4.69,2.15,2.01,4.09,24.3,–,13.8,9.51,2.73
CC1=C2CC[C@@]3(C)C(=CCC3O)C2(C)CCC1=O (stereo partly specified),> 100,> 100,> 100,> 100,> 100,> 100,–,–,–,–,–,> 100,–,–,–,–,–,–,> 100,–
CCOC(=O)C(C(=O)OCC)=C1C=C(c2ccccc2)c2ccccc21,> 100,> 100,> 100,46.8,> 100,89.4,> 100,–,–,–,–,> 100,–,–,–,–,–,–,–,–
Cc1ccc(NC(=S)NNC(=S)Nc2ccc(C)cc2)cc1,50,> 100,> 100,> 100,> 100,65.3,8.68,7.6,17.9,15.5,3.81,> 100,6.43,7.07,3.75,> 100,4.46,2.66,–,–
COc1ccc2nc3cc([N+](=O)[O-])ccc3c(NCCO)c2c1,17.4,–,–,7.02,–,7.16,–,3.31,24.4,–,2.2,10.5,1.86,–,1.11,4.17,1.39,–,–,3.13

# — PubChem BioAssay (NCI)
